The subject of test [1] is PC-3 (human prostate adenocarcinoma) cells. The test can be described thus: MTT viability assay, PC3. The test is classed as cell-based. An excerpt:
(§1) To investigate whether the compounds have an antitumor activity, we performed in vitro viability assays against a panel of cancer cell lines: HT29 (human colorectal adenocarcinoma), HeLa (human cervical carcinoma), IGROV-1 (human ovarian carcinoma), MCF7 (human breast cancer), PC-3 (human prostate adenocarcinoma), and Jurkat J6 (human […]). The I407 (human embryonic intestinal) and 3T3 (mouse embryonic fibroblast) cells were used as controls. The growth inhibitory concentration was determined by incubating the cells with increasing concentrations (0.01–500 μM) of the compounds for 24 h. Data obtained from cell growth assays were elaborated to assess the concentration of cell viability (IC50) and selectivity indices (SI), and the results are shown in Table 2 and Table 3, respectively.
(§2) HT29 human colorectal adenocarcinoma cells, HeLa human cervix adenocarcinoma cells, MCF7 human breast adenocarcinoma cells, PC-3 human prostate adenocarcinoma cells, J6 Jurkat Clone E6-1 acute T cell leukemia, the healthy I407 human intestine cells, and mouse embryonic fibroblast 3T3 fibroblasts as controls cell lines were purchased from American Type Culture Collection (ATCC, Manassas, VA). The human ovarian cancer cell line IGROV1 has been kindly provided by Prof. Colnaghi (Istituto Nazionale Tumori (IRCCS) (Milano, Italy). Cells were cultured in RPMI 1640 medium (Labtek Eurobio, Milan, Italy), supplemented with 10% FCS (Euroclone, Milano, Italy) and 2 mM L-glutamine (Sigma-Aldrich, Milano, Italy), at 37 °C, and a 5% CO2 atmosphere. The compounds were dissolved in DMSO in a 30–40 mM stock solution. In cell treatments, the final DMSO concentration never exceeded 0.1%.
(§3) Cells were seeded at 1.5 × 10^4 cells/well in a 96-well culture plastic plate (Sarsted, Milan, Italy), and after 24 h of growth were exposed to increasing concentrations of each distinct compound (from 0.010 μM to 500 μM) solubilized in RPMI 1640 medium. MTT assay was performed according to the literature. In brief, after 24 h of treatment, the culture medium was replaced with 0.1 mL of 3-(4,5-dimethylthiazolyl-2)-2,5-diphenyltetrazolium bromide (MTT, Sigma-Aldrich, Milano, Italy) dissolved in PBS at the concentration of 0.2 mg/mL, and samples were incubated for 2 h at 37 °C. The absorbance at 570 nm was measured using a multiwell plate reader (Tecan, Männemorf, Switzerland), and data were analyzed by Prism GraphPad software, and expressed as IC50 μM.
A general note: Tetrazolium assays rely on reduction of a dye to a coloured formazan, in cell work by metabolically active cells.

Test [2] concerns MCF7 (human breast cancer) cells. The test can be described thus: MTT viability assay, MCF7. Format: cell-based. The conditions noted are these: Homo sapiens, MCF7; MTT, 24 h.
Description: as §1, §2, §3

The test system of test [3] is p27, p21 and Bax proteins in HT29 cells. The test can be described thus: Western blot of p27, p21, Bax proteins. The test is classed as cell-based, human. The conditions noted are these: HT29, 5 μM, 24 h. The method, then:
P27, p21, and Bax proteins expressions were analysed by western blot in control HT29 and treated with 5 μM of 5 for 24 h.
HT29 cells were seeded in 25 cm^2 flasks at a density of 2 × 10^4 cells/cm^2, and after 24 h, they were treated with 5 μM of compound 5. After 24 h, both treated and control cells were washed twice with PBS and lysed in RIPA buffer [50 mMTris/HCl, 150 mMNaCl, SDS (1% v/v), Triton X-100 (1% v/v), 1 mM EDTA, pH 7.6]. Cell lysates were centrifuged at 12,000× g for 20 min, and the protein concentration was determined by using the Bio-Rad protein assay method (Bio-Rad, Hercules, CA, USA). The proteins were detected resolving samples on a 12% gel in Tris-Glycine buffer at 200 V for 50 min. Western Blot was performed in transfer buffer at 100 V for 1 h. The nitrocellulose membrane was incubated with primary antibodies for rabbit anti-p21 (Millipore, Billerica, MA, USA) or rabbit anti-p27 (Millipore, Billerica, MA) or mouse anti-Bax (Millipore, Billerica, MA, USA) or mouse anti-α tubulin (Invitrogen, Walthman, MA, USA) for 1 h. Detection of immunoreactive bands was performed by using a rabbit or mouse HRP-conjugated secondary antibody (GE Healthcare, Milan, Italy), followed by Amersham ECL Plus Western Blotting Detection System (GE Healthcare, Milan, Italy). Densitometry analysis of immunoreactive bands was done by Fluor-S Max MultiImager (Bio-Rad, Hercules, CA, USA). Relative quantification of bands was performed by using an α-tubulin signal as control.

In test [4] the test system is IGROV-1 (human ovarian carcinoma) cells. The test is described as follows: MTT viability assay, IGROV-1. Format: cell-based. The conditions noted are these: 24 h.
Description: as §1, §2, §3

The test system of test [5] is HeLa (human cervical carcinoma) cells. The test is described as follows: MTT viability assay, HeLa. The test is classed as cell-based. The conditions noted are these: Homo sapiens; MTT, 24 h.
Description: as §1, §2, §3

Test [6] concerns the target T1, κ-OR (Homo sapiens, UniProt P41145).
T1 construct: purchased PerkinElmer (Krakow, Poland); host or cells: CHO cells (membranes)
The test can be described thus: Radioligand binding assay, κ-OR ([3H]U-69593 displacement). The conditions noted are these: [3H]U-69593, membranes of CHO cells with human recombinant OR; ± SEM (n ≥ 3). The method, then: In order to evaluate the affinity of the compounds for μ-, δ-, κ-ORs, radioligand binding assays were performed. Displacement of radioligands, [^3H]DAMGO (μ-OR selective), [^3H]deltorphin-2 (δ-OR selective), and [^3H]U-69593 (κ-OR selective) by the synthetic analogs was investigated in the commercial membranes of CHO cells transfected with human recombinant ORs. […] Due to the modest receptor affinities, the functional activity of the compounds was not investigated.
Opioid radioligands, [^3H]DAMGO, [^3H]deltorphin-2 and [^3H]U-69593, and human recombinant opioid receptors came from PerkinElmer (Krakow, Poland). GF/B glass fiber strips were purchased from Whatman (Brentford, UK).
To determine the affinity of peptide analogs at the respective receptors, competition binding experiments were performed. Commercial membranes of CHO cells stably expressing human opioid receptors and the competing radioligands, [^3H]DAMGO, [^3H]deltorphin-2, and [^3H]U-69593 for μ-OR, δ-OR, and κ-OR, respectively, were used. Membranes were incubated in 0.5 mL volume of 50 mM Tris/HCl (pH = 7.4), 0.5% bovine serum albumin (BSA), with a number of peptidase inhibitors (bacitracin, bestatin, captopril) and various concentrations of radioligands for 2 h at 25 °C. Non-specific binding was assessed in the presence of […]. Three independent experiments for each assay were carried out in duplicate. The data were analyzed by a nonlinear least square regression analysis computer program Graph Pad PRISM 6.0 (Graph Pad Software Inc., San Diego, CA, USA). The IC50 values were determined from the logarithmic concentration-displacement curves, and the values of the inhibitory constants (Ki) were calculated according to the equation of Cheng and Prusoff.

Test [7] deals with Jurkat J6 cells. The test is described as follows: MTT viability assay, Jurkat J6. Format: cell-based, human.
Description: as §1, §2, §3

Test [8] has as its system HT29 (human colorectal adenocarcinoma) cells. The test is described as follows: MTT viability assay, HT29. The test is classed as cell-based.
Description: as §1, §2, §3

This is an account of results in article PMC9822155, “Synthesis and Antiproliferative Activity against Cancer Cells of Indole-Aryl-Amide Derivatives” (Molecules, 2022).

As usually defined, the IC50 is the midpoint of a concentration-inhibition curve. Higher therefore signals weaker potency in that assay. By Ki is commonly meant a dissociation constant, usually derived from enzyme kinetics or from competition with a known ligand.

T1 sequence (P41145 whole entry): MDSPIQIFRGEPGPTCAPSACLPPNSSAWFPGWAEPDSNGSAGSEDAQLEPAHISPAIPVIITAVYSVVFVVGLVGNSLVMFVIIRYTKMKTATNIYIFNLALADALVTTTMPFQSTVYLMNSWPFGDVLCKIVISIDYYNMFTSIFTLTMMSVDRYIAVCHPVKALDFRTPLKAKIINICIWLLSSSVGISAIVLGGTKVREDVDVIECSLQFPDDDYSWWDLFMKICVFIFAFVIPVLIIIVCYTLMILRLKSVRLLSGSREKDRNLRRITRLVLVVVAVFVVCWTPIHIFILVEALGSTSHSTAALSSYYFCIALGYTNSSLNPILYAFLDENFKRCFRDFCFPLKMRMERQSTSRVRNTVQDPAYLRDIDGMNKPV

In the case of `Nc1ccc(CN(Cc2ccc(O)cc2)C(=O)Cc2c[nH]c3ccccc23)cc1` [Compound 5], in test [1] (3T3 normal cells as reference), the “Selectivity Index IC503T3/ IC50PC3” value turned out to be 82.051. The half-inhibitory concentration (IC50) in test [1] (Homo sapiens, MTT, 24 h) is 0.39 ± 0.07 µM; in test [2], more than 500 µM; in test [4], more than 500 µM; in test [5] it was more than 500 µM; in test [7] (Homo sapiens, Jurkat, MTT, 24 h) it was 0.37 ± 0.04 µM; in test [8] (Homo sapiens, HT-29, MTT, 24 h), 2.61 ± 0.05 µM. Moreover, the Bax protein expression result in test [3] is on record as “increase”. In test [3], the p21 protein expression entry is on record as “increase”. Besides, in test [3], the p27 protein expression result is listed as “did not modify the expression”. The Ki in test [6] stood at 3.8 ± 0.52 µM. The “Ki (µM) κ-OR” value in test [6] is reported as “low μM range”. For the same compound, in test [7] (3T3 normal cells as reference), the “Selectivity Index IC503T3/ IC50J6” value worked out at 86.487. The “Selectivity Index IC503T3/ IC50HT29” value in test [8] (3T3 normal cells as reference) came to 12.26.
